# Data as given in patent US12516067B2, “Antagonists of the muscarinic acetylcholine receptor M4” (Vanderbilt University, priority 2020, dated 2026).
# Target: T1, Human M4 (Homo sapiens, UniProt P08173)
# T1 construct: expressed in transfected cells; host or cells: CHO-K1 (ATCC), co-transfected with chimeric G protein Gqi5
# T1 sequence (P08173 1-479): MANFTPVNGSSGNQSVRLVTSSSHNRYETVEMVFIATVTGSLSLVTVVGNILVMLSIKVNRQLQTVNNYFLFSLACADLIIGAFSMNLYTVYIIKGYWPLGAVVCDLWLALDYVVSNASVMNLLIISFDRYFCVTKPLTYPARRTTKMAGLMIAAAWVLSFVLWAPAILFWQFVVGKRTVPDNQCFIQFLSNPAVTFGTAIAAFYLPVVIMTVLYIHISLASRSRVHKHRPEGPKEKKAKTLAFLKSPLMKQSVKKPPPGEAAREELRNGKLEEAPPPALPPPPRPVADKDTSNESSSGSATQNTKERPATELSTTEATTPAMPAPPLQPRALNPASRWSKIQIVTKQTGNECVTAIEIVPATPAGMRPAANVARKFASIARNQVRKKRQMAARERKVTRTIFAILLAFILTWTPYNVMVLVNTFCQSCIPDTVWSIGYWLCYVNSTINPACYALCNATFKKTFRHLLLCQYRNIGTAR
# Assay: mAChR M4 cell-based functional assay (calcium flux, decrease of EC80 acetylcholine response) in M4/Gqi5/CHO-K1 cells
# Settings: CHO-K1 cells with human M4 and Gqi5; for remaining activity at 30 µM: % ACh maximum at 30 μM, read-out: Human M4 Emin; for IC50: antagonist mode: concentration-dependent decrease of response to EC80 acetylcholine
# Method: Human or rat M4 cDNA, along with the chimeric G protein Gqi5, were transfected into Chinese hamster ovary (CHO-K1) cells purchased from the American Type Culture Collection using Lipofectamine2000. M4/Gqi5/CHO cells were grown in Ham's F-12 medium containing 10% heat-inactivated fetal bovine serum (FBS), 20 mM HEPES, 500 μg/mL G418 sulfate, and 200 μg/mL Hygromycin B.
# For high throughput measurement of agonist-evoked increases in intracellular calcium, CHO-K1 cells stably expressing muscarinic receptors were plated in growth medium lacking G418 and hygromycin at 15,000 cells/20 μL/well in Greiner 384-well black-walled, tissue culture (TC)-treated, clear-bottom plates (VWR). Cells were incubated overnight at 37° C. and 5% CO2. The next day, cells were washed using an ELX 405 (BioTek) with assay buffer; the final volume was then aspirated to 20 μL. Next, 20 μL of a 2.3 μM stock of Fluo-4/acetoxymethyl ester (Invitrogen, Carlsbad, CA), prepared as a 2.3 mM stock in DMSO and mixed in a 1:1 ratio with 10% (w/v) Pluronic F-127 and diluted in assay buffer, was added to the wells and the cell plates were incubated for 50 min at 37° C. and 5% CO2. Dye was removed by washing with the ELX 405 and the final volume was aspirated to 20 μL. Compound master plates were formatted in a 10 point concentration-response curve (CRC) format (1:3 dilutions) in 100% DMSO with a starting concentration of 10 or 1 mM using a BRAVO liquid handler (Agilent). Test compound CRCs were then transferred to daughter plates (240 nL) using the Echo acoustic plate reformatter (Labcyte, Sunnyvale, CA) and then diluted into assay buffer (40 μL) to a 2× stock using a Thermo Fisher Combi (Thermo Fisher Scientific, Waltham, MA).
# Calcium flux was measured using the Functional Drug Screening System (FDSS) 6000 or 7000 (Hamamatsu Corporation, Tokyo, Japan) as an increase in the fluorescent static ratio. Compounds were applied to cells (20 μL, 2×) using the automated system of the FDSS at 2 seconds into the protocol and the data were collected at 1 Hz. At 143 s, 10 μL of an EC20 concentration of the muscarinic receptor agonist acetylcholine was added (5×), followed by the addition of 12 μL of an EC80 concentration of acetylcholine at the 268 s time point (5×). Agonist activity was analyzed as a concentration-dependent increase in calcium mobilization upon compound addition. Positive allosteric modulator activity was analyzed as a concentration-dependent increase in the EC20 acetylcholine response. Antagonist activity was analyzed as a concentration-dependent decrease in the EC80 acetylcholine response; for the purposes of the tables herein, an IC50 (inhibitory concentration 50) was calculated as a concentration-dependent decrease of the response elicited by an EC80 concentration of acetylcholine. Concentration-response curves were generated using a four-parameter logistical equation in XLFit curve fitting software (IDBS, Bridgewater, NJ) for Excel (Microsoft, Redmond, WA) or Prism (GraphPad Software, Inc., San Diego, CA) or the Dotmatics software platform (Dotmatics, Bishop's Stortford, UK).
# Compounds were synthesized as described above. Activity (IC50 and Emin) was determined in the mAChR M4 cell-based functional assay as described above and the data are shown in Table 1.
remaining activity at 30 µM [%],IC50 [µM],Structure (SMILES)
6,0.087,"Fc1ccc(Cl)c(-c2ccc(NCc3cccc4c3CCN(CCC3CCOCC3)C4)nn2)c1 [B5, 6-(2-chloro-5-fluorophenyl)-N-((2-(2-(tetrahydro-2H-pyran-4-yl)ethyl)-1,2,3,4-tetrahydroisoquinolin-5-yl)methyl)pyridazin-3-amine]"
6,0.257,"OC1(CN2CCc3c(CNc4ccc(-c5cc(F)ccc5Cl)nn4)cccc3C2)CCCCC1 [B6, 1-((5-(((6-(2-chloro-5-fluorophenyl)pyridazin-3-yl)amino)methyl)-3,4-dihydroisoquinolin-2(1H)-yl)methyl)cyclohexan-1-ol]"
11,0.616,"Fc1cc(F)c(F)c(-c2ccc(NCc3cccc4c3CCN(CC3CCOCC3)C4)nn2)c1 [B7, N-((2-((tetrahydro-2H-pyran-4-yl)methyl)-1,2,3,4-tetrahydroisoquinolin-5-yl)methyl)-6-(2,3,5-trifluorophenyl)pyridazin-3-amine]"
8,0.781,"Fc1ccc(F)c(-c2ccc(NCc3cccc4c3CCN(CC3CCOCC3)C4)nn2)c1 [B8, 6-(2,5-difluorophenyl)-N-((2-((tetrahydro-2H-pyran-4-yl)methyl)-1,2,3,4-tetrahydroisoquinolin-5-yl)methyl)pyridazin-3-amine]"
8,1.25,"Cn1cc2cc(-c3ccc(NCc4cccc5c4CCN(CC4CCOCC4)C5)nn3)ccc2n1 [B9, 6-(2-methyl-2H-indazol-5-yl)-N-((2-((tetrahydro-2H-pyran-4-yl)methyl)-1,2,3,4-tetrahydroisoquinolin-5-yl)methyl)pyridazin-3-amine]"
5,0.335,"Cc1ccc(F)cc1-c1ccc(NCc2cccc3c2CCN(CC2CCOCC2)C3)nn1 [B10, 6-(5-fluoro-2-methylphenyl)-N-((2-((tetrahydro-2H-pyran-4-yl)methyl)-1,2,3,4-tetrahydroisoquinolin-5-yl)methyl)pyridazin-3-amine]"
12,2.7,"CC(=O)Nc1ccc(-c2ccc(NCc3cccc4c3CCN(CC3CCOCC3)C4)nn2)cc1 [B11, N-(4-(6-(((2-((tetrahydro-2H-pyran-4-yl)methyl)-1,2,3,4-tetrahydroisoquinolin-5-yl)methyl)amino)pyridazin-3-yl)phenyl)acetamide]"
13,3.38,"c1ccc(-c2ccc(NCc3cccc4c3CCN(CC3CCOCC3)C4)nn2)cc1 [B12, 6-phenyl-N-((2-((tetrahydro-2H-pyran-4-yl)methyl)-1,2,3,4-tetrahydroisoquinolin-5-yl)methyl)pyridazin-3-amine]"
4,0.15,"[2H]C([2H])(C1CCOCC1)N1CCc2c(CNc3ccc(-c4cc(F)ccc4Cl)nn3)cccc2C1 [B13, 6-(2-chloro-5-fluorophenyl)-N-((2-((tetrahydro-2H-pyran-4-yl)methyl-d2)-1,2,3,4-tetrahydroisoquinolin-5-yl)methyl)pyridazin-3-amine]"
5,0.919,"[2H]C([2H])(C1CCOCC1)N1CCc2c(CNc3ccc(-c4cc(F)cc(F)c4F)nn3)cccc2C1 [B14, N-((2-((tetrahydro-2H-pyran-4-yl)methyl-d2)-1,2,3,4-tetrahydroisoquinolin-5-yl)methyl)-6-(2,3,5-trifluorophenyl)pyridazin-3-amine]"
